Reference: patent US20100311668A1, “PERSONAL CARE AND COSMETIC COMPOSITION CONTAINING TETRAPEPTIDES WITH THE MOTIFS GX1X2G, PX1X2P, OR PX1X2K” (EVONIK GOLDSCHMIDT GMBH, priority 2007, published 2010)
Blank lines part the entries; values can stand above or below the substance they belong to. Ends that are not written are not given here.

Key:
[1] = tested on: collagen 1 alpha-1 (COL1A1); test: Collagen 1 alpha-1 (COL1A1) mRNA expression in human dermal fibroblasts, quantitative PCR; type: cell-based; conditions: HDFs, 1 μg/ml peptide, 24 hours, vs PBS control, normalized to 18S rRNA
Description: (§1) FIG. 3: Collagen 1 alpha-1 (COL1A1) expression in human dermal fibroblasts (HDFs). […] Controls received PBS. Cells were harvested after 24 hours incubation and RNA was isolated. Expression of […] was determined by quantitative PCR. 18s rRNA served as house keeping gene for normalization. Given are means of three independent experiments.
(§2) Therefore, HDFs prepared from neonatal foreskin were cultured in EMEM (Life Technologies GmbH, Eggenstein, Germany) supplemented with 5% fetal calf serum (Greiner, Frickenhausen, Germany), 0.1% 1-glutamine, 2.5% NaHCO3, and 1% streptomycin/amphotericin B in a humidified atmosphere containing 5% CO2 for 4 days until they reached confluence as described by Schieke et al. J Invest Dermatol 2002, 119: 1323-9. […]
(§3) For isolation of total RNA RNeasy Total RNA Kits (Qiagen, Hilden; Germany) were used according to the manufacturer's guidelines. The RNA concentration was determined via photometric measurement at 260/280 (Biophotometer, Eppendorf, Hamburg, Germany).
(§4) Aliquots of total RNA (100 ng) were applied for cDNA-Synthesis using Superscript™ III First-Strand synthesis system for the reverse transcription step with random […] (Invitrogen, Karlsruhe, Germany). […] Three independent experiments were performed with 3 determinations each and the mean value of these was calculated. […] Each sample was analyzed in double employing the universal protocol over 46 cycles. […]

[2] = tested on: collagen 1 alpha-2 (COL1A2); test: Collagen 1 alpha-2 (COL1A2) mRNA expression in human dermal fibroblasts, quantitative PCR; type: cell-based; conditions: HDFs, 1 μg/ml peptide, 24 hours, vs PBS control, normalized to 18S rRNA
[3] = tested on: hyaluronic acid synthetase 1 (HAS1); test: Hyaluronic acid synthetase 1 (HAS1) mRNA expression in human dermal fibroblasts, quantitative PCR; type: cell-based; conditions: HDFs, 1 μg/ml peptide, 24 hours, vs PBS control, normalized to 18S rRNA
Description: as §1, with “2: Hyaluronic acid synthetase” for “3: Collagen”, “(HAS1)” for “alpha-1 (COL1A1)”
as §2, §3, §4

collagen = conditions: prior-art product background; cited from earlier work
fibronectin 1 (FN1) = test: Fibronectin 1 (FN1) mRNA expression in human dermal fibroblasts, quantitative PCR; type: cell-based; conditions: HDFs, 1 μg/ml peptide, 24 hours, vs PBS control, normalized to 18S rRNA
Description: as §1, with “1: Fibronectin” for “3: Collagen”, “(FN1)” for “alpha-1 (COL1A1)”
as §2, §3, §4

[4] = tested on: human dermal fibroblasts (HDFs); test: Collagen production in human dermal fibroblasts, Sircol Soluble Collagen Assay of culture supernatants; type: cell-based; conditions: 1 μg/ml peptide, 24 hours, vs PBS control
Description: FIG. 5: Collagen production in human dermal fibroblasts (HDFs). […] Controls received PBS. Cell culture supernatands were collected after 24 hours incubation. Amounts of collagen were determined as described above. Given are means of three independent experiments.
Therefore, HDFs prepared from neonatal foreskin were cultured in EMEM (Life Technologies GmbH, Eggenstein, Germany) supplemented with 5% fetal calf serum (Greiner, Frickenhausen, Germany), 0.1% 1-glutamine, 2.5% NaHCO3, and 1% streptomycin/amphotericin B in a humidified atmosphere containing 5% CO2 for 4 days until they reached confluence as described by Schieke et al. J Invest Dermatol 2002, 119: 1323-9. For all studies, only early passage (<12) fibroblasts have been used to avoid changes in their original phenotype during subculture. Cells were kept in 6 well plates for culture. Peptides dissolved in PBS were added at concentrations of 1 μg/ml and incubated for 24 hours.
The amount of collagen in cell culture supernatants was determined utilizing a Sircol™ Soluble Collagen Assay (# S1000) from Biocolor Ltd. (Newtownabbay, Northern Ireland, UK) following the guidelines of the manufacturer.

[5] = tested on: proinflammatory cytokines; test: Inhibition of UV-induced expression of proinflammatory cytokines

Substance: GAGP [SEQ ID NO:11, tetrapeptide GAGP]
COL1A1 expression [1]: Strongest effects

HAS1 expression [3]: strongest effects
Substance: GEPG (also: N-acyl group, acyl not given here) [SEQ ID NO:1, tetrapeptide GEPG]
COL1A2 expression [2]: triggering effects

Substance: Val-Trp
collagen stimulating activity (collagen): no significant collagen stimulating activity

Substance: GPPG (also: N-acyl group, acyl not given here) [SEQ ID NO:2, tetrapeptide GPPG]
FN1 expression (fibronectin 1 (FN1)): strongest effects

HAS1 expression [3]: strongest effects
Substance: GEKG (also: N-acyl group, acyl not given here) [SEQ ID NO:3, tetrapeptide GEKG]
collagen production (collagen protein in cell culture supernatants) [4]: markedly increased production of collagen

Substance: PGPP (also: N-acyl group, acyl not given here) [SEQ ID NO:4, tetrapeptide PGPP]
COL1A2 expression [2]: triggering effects
FN1 expression (fibronectin 1 (FN1)): strongest effects
collagen production (collagen protein in cell culture supernatants) [4]: markedly increased production of collagen

Substance: PKEK (also: N-acyl group, acyl not given here) [tetrapeptide PKEK]
inhibition of UV-induced expression of proinflammatory cytokines [5]: inhibition of UV-induced expression of proinflammatory cytokines
